Test results from article PMC10009755, “Discovery and Characterization of BAY-805, a Potent and Selective Inhibitor of Ubiquitin-Specific Protease USP21” (Journal of Medicinal Chemistry, 2023).
Converted amounts (≈) assume the structure as drawn. Read-outs that look alike come from different tables or passages of the source.

Tests used:
[1] = target: T1, C-terminal HiBiT-tagged USP21 (Homo sapiens, UniProt Q9UK80); assay: USP21 HiBiT CETSA; type: cell-based; conditions: 49 °C, HEK293T cells
T1 construct: expressed in transfected cells; host or cells: HEK293T
T1 sequence (Q9UK80 1-565): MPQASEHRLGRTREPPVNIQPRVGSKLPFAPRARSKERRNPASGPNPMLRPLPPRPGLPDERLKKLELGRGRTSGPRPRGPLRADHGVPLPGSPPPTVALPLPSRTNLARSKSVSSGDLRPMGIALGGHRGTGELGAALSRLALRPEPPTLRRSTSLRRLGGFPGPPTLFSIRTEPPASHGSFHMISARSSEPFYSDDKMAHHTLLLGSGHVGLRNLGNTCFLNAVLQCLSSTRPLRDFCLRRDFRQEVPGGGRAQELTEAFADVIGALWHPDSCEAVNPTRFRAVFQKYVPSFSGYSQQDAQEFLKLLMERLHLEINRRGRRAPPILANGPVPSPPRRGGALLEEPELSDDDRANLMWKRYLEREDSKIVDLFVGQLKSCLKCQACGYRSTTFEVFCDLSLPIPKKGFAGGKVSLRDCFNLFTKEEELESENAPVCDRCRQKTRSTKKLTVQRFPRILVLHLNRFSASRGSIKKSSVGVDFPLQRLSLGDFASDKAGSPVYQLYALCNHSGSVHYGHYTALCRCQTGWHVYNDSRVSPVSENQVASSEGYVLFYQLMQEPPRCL
Method: In particular, we utilized a HiBiT CETSA assay format[42],[43] conducted in intact HEK293T cells. Cells were transfected with USP21 fused to a small proluminescent NanoLuc HiBiT tag, which, when complemented with the Large BiT NanoLuc fragment, produces a quantifiable luminescence signal.
HEK293T cells were seeded in a six-well plate at 8 × 10^5 cells/well in 2 mL of DMEM supplemented with 10% FBS, penicillin (100 U/mL), and streptomycin (100 μg/mL) and transfected 4 h after seeding using an X-tremeGENE HP transfection reagent, following the manufacturer’s instructions with a total of 2 μg of plasmid constructs (C-terminally tagged USP21 HiBiT and empty pCDNA3.1 vector). […] The breathable paper adhesive film was then replaced with a PCR adhesive film, and cells were heated at indicated temperatures in an Applied Biosystems VeritiPro thermal cycler for 3 min, followed by 3 min incubation at rt before the addition of LgBiT solution (200 nM LgBiT, 2% NP-40, protease inhibitors (Roche cOmplete, ethylenediaminetetraacetic acid (EDTA)-free Protease Inhibitor) in OptiMEM no phenol red (Gibco)) to lyse cells.

[2] = target: T2, USP21 (Homo sapiens, UniProt Q9UK80)
T2 sequence (Q9UK80 1-565): T1 sequence (Q9UK80 1-565)
Method: The final assay volume was 6 μL. […] First, 2 μL of 1 nM USP21 (or selectivity enzyme) solution was added to the compound plate and preincubated for 15–20 min at room temperature. […] The reaction was stopped by 50 mM citric acid in 25 mM HEPES, pH 7.5, containing 0.01% BSA. […] The USP21 and USP22 were measured with five flashes and USP2 and USP7 in fly mode.

[3] = target: T2, USP21; assay: biochemical
Method: To this end, we developed a USP21 activity assay that is based on the deubiquitination of a STING-derived peptide (a USP21-specific substrate[17],[18]) by purified recombinant human full-length USP21 using time-resolved fluorescence resonance energy transfer (TR-FRET) technology (referred to as a homogeneous time-resolved fluorescence (HTRF)-assay, for details see the Supporting Information).[39]
All substrate and enzyme solutions were diluted in an assay buffer. […] Incubation time was 15–20 min at room temperature. […] The stop solution (DUB inhibitor PR619, Abcam) was prepared in 25 mM HEPES, pH 7.5 (Alfa Aesar) containing 0.01% BSA and then left for 10 min at room temperature before filtering with a 0.2 μM PES Membrane (Thermo Fisher). The reaction was stopped with the addition of 2 μL of 200 μM PR619. […] The plates were measured on the ViewLux in screening or PHERAstar FSX in compound profiling. […] The number of flashes per well was set to 3. All of the experimental data were plotted using Genedata analysis. The Z′-factor and S/B of the assay were >0.7 and ∼2, respectively.

[4] = test system: NF-κB activation; assay: NF-κB reporter assay; type: cell-based; conditions: HEK293T cells, up to 10 μM
Method: Yang and colleagues reported that USP21 inhibition induces NF-κB activation by preventing deubiquitination of RIP1.[15] K63 ubiquitinated RIP1 is required for NF-κB activation, and thus USP21-mediated deubiquitination of RIP1 shuts down the NF-κB pathway.
Four hours after replating, cells were treated with compounds or DMSO (note: DMSO concentrations were kept consistent across all cells). Promega Dual-Luciferase Reporter Assay kit was then used to prepare samples for Firefly and Renilla signal measurement on a CLARIOstar microplate reader (BMG) 20 h after compound treatment. Relative luciferase units were calculated by normalizing the Firefly signal to the background Renilla signal, followed by normalization to DMSO controls of wild-type USP21.

[5] = log D measurement (HPLC); type: physicochemical; conditions: reverse-phase HPLC, pH 7.5, pH 7.5, HPLC method; read-out: logD7.5
Method: log D values at pH 7.5 were recorded using an indirect method for determining hydrophobicity constants by reverse-phase HPLC. A series of compounds with well-known log D values were used for calibration. Test compounds were injected into the same HPLC system. The lipophilicity of compounds was then assessed by comparison to the calibration curve.

[6] = Aqueous solubility; type: physicochemical; conditions: PBS pH 6.5, pH 6.5, PBS pH 6.5
Method: Test compounds were applied as DMSO solutions or directly from powder. After the addition of the buffer, solutions were shaken at rt for 24 h. The undissolved material was removed by filtration or centrifugation. The compound dissolved in the supernatant was quantified by HPLC-UV or HPLC-MS/MS.

[7] = in vitro; type: in vitro ADME; conditions: human, Caco-2, pH 7.2
Method: Caco-2 cells [purchased from the German Collection of Microorganisms and Cell Cultures (DSMZ)] were seeded at a density of 4.5 × 10^4 cells/well on 24-well insert plates [0.4 μm pore size, 0.3 cm^2 (Costar)] and grown for 13–15 days in DMEM medium supplemented with 10% fetal calf serum (FCS), 1% GlutaMAX (100×, Gibco), 100 U/mL penicillin, 100 μg/mL streptomycin (Gibco), and 1% nonessential amino acids (100×, Thermo Fischer Scientific). […] The medium was changed every 2–3 days.
The bidirectional transport assay for the evaluation of Caco-2 permeability was undertaken in 24-well insert plates using a robotic system (Tecan). Before the assay was run, the culture medium was replaced by a transport medium (FCS-free HEPES carbonate transport buffer pH 7.2). For the assessment of monolayer integrity, the transepithelial electrical resistance (TEER) was measured. Only monolayers with a TEER of at least 400 Ω·cm^2 were used. Test compounds were pre-dissolved in DMSO and added either to the apical or basolateral compartment at a final concentration of 2 μM. The evaluation was performed in triplicate. […] The efflux ratio (ER) basolateral (B) to apical (A) was calculated by dividing Papp B–A by Papp A–B.

N#Cc1ccc(Cc2nnc(NC(=O)[C@H](NC(=O)C3(C(F)(F)F)CCCCC3)C3CCCC3)s2)cc1 [Compound 20, FC(F)(F)C1(CCCCC1)C(=O)N[C@H](C2CCCC2)C(=O)Nc3nnc(Cc4ccc(cc4)C#N)s3]
cellular thermal stabilization of USP21 (in words) [1]: Strong thermal stabilization of USP21
IC50 [2]: 0.008 µM
IC50 [3]: 0.013 µM
NF-κB activation (in words) [4]: significant NF-κB activation levels
chromatographic logD [5]: 3.7
solubility at 24 h [6]: 1.33 µM (≈ 0.691 µg/mL)
Papp A→B at 2 h, 2 µM ([7]; 2 μM, 2 h): 3.4 ×10⁻⁶ cm/s
efflux ratio at 2 h, 2 µM ([7]; Papp B–A / Papp A–B, read-out: Caco-2 efflux ratio (ER)): 0.7
